Reference: ChEMBL document CHEMBL4130554, “Inducing Secondary Metabolite Production by Combined Culture of Talaromyces aculeatus and Penicillium variabile” (J Nat Prod, 2017)

Columns and labels:
HeLa = experiment: Cytotoxicity against human HeLa cells by SRB method; type: functional, cell-based
K562 = experiment: Cytotoxicity against human K562 cells by MTT method; type: functional, cell-based
HCT-116 = experiment: Cytotoxicity against human HCT116 cells by SRB method
HL-60 = experiment: Cytotoxicity against human HL60 cells by MTT method
A549 = experiment: Cytotoxicity against human A549 cells by SRB method
MCF7 = experiment: Cytotoxicity against human MCF7 cells by SRB method; type: functional, cell-based

Row | Structure (SMILES) | IC50 (HeLa) [µM] | IC50 (K562) [µM] | IC50 (HCT-116) [µM] | IC50 (HL-60) [µM] | IC50 (A549) [µM] | IC50 (MCF7) [µM]
1 | CC[C@H](C)/C=C/C=C(\C)C[C@@H](C)/C=C/C=C/[C@H]1OC(=O)[C@H](O)[C@@H]2O[C@]12C | > 50 | > 50 | > 50 | > 50 | > 50 | > 50
2 | COC(=O)[C@@H]1O[C@@H](/C=C/C=C/[C@H](C)C/C(C)=C/C=C/[C@@H](C)CCO)[C@@]2(C)O[C@@H]12 | > 50 | > 50 | > 50 | > 50 | > 50 | > 50
3 | CC[C@H](C)/C=C/C=C(\C)C[C@@H](C)/C=C/C=C/[C@H]1OC(=O)C=C[C@]1(C)O | 5.5 | 2.9 | 1.4 | 1.2 | 5.1 | 9.8
4 | CC[C@H](C)/C=C/C=C(\C)C[C@@H](C)/C=C/C=C/[C@@H]1O[C@@H](C(=O)OC)[C@@H]2O[C@]12C | > 50 | > 50 | > 50 | > 50 | > 50 | > 50
5 | CC[C@@H](/C=C/C=C(\C)C[C@@H](C)/C=C/C=C/[C@@H]1O[C@@H](C(=O)OC)[C@@H]2O[C@]12C)CO | > 50 | > 50 | > 50 | > 50 | > 50 | > 50
6 | COc1cccc2c1C(=O)c1c(O)c3c(c(O)c1C2=O)C[C@@](O)(C(=O)CO)C[C@@H]3O[C@H]1C[C@H](N)[C@H](O)[C@H](C)O1 [DOXORUBICIN] | 0.5 | 0.6 |  |  |  | 0.6
